From ChEMBL document CHEMBL4033762, “Development of Quinazoline/Pyrimidine-2,4(1H,3H)-diones as Agonists of Cannabinoid Receptor Type 2” (ACS Med Chem Lett, 2017)

Assays:
[1] = biological target: Cannabinoid receptor 1 (Homo sapiens, UniProt P21554); assay: Agonist activity at CB1 receptor (unknown origin) expressed in CHO cells co-expressing G-alpha16 incubated for 24 hrs by fluo-4 AM dye based whole-cell calcium mobilization assay
[2] = biological target: T1, Cannabinoid receptor 2 (Homo sapiens, UniProt P34972); assay: Agonist activity at CB2 receptor (unknown origin) expressed in CHO cells co-expressing G-alpha16 incubated for 24 hrs by fluo-4 AM dye based whole-cell calcium mobilization assay; assay type: functional
T1 sequence (P34972 whole entry): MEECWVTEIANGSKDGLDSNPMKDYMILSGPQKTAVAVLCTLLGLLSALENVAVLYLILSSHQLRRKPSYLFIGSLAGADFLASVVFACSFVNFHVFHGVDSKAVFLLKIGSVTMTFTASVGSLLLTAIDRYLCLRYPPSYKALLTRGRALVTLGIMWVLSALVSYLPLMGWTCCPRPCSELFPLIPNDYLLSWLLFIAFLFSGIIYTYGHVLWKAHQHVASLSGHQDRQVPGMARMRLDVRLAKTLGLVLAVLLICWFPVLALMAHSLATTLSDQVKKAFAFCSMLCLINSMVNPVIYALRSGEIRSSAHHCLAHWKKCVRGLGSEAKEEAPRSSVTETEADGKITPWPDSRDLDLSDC

[3] = Ratio of EC50 for agonist activity at CB1 receptor (unknown origin) expressed in CHO cells to EC50 for agonist activity at CB2 receptor (unknown origin) expressed in CHO cells; design: species or system Homo sapiens
[4] = biological target: T1, Cannabinoid receptor 2; assay: Agonist activity at CB2 receptor (unknown origin) expressed in CHO cells co-expressing G-alpha16 incubated for 24 hrs by fluo-4 AM dye based whole-cell calcium mobilization assay relative to CP55940; assay type: functional
[5] = Lipophilicity, log P of the compound incubated at 37 degC for 20 hrs by HPLC based shake flask method; assay type: physicochemical

Chain of Cannabinoid receptor 1 (P21554 whole entry): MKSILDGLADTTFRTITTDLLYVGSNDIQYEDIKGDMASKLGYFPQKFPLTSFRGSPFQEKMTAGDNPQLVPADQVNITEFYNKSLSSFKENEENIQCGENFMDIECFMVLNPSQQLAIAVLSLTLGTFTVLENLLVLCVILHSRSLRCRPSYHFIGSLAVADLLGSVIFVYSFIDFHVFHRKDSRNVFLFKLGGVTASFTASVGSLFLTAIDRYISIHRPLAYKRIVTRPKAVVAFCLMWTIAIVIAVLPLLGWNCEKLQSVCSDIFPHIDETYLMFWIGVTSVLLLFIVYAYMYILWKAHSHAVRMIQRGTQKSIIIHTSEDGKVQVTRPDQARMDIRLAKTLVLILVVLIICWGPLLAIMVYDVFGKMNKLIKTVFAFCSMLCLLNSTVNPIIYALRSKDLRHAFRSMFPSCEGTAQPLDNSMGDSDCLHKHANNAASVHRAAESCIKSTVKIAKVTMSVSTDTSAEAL

Row | Compound | EC50 [1] [nM] | EC50 [2] [nM] | Ratio EC50 [3] | Emax [4] [%] | logP at 20 h [5]
1 | C=CCCn1c(=O)n(CC(=O)NC(C)(C)C)c(=O)c2c(C)cccc21 | > 10000 | 46.8 | >214 | 103 | 
2 | CCCCCn1c(=O)n(CC(=O)NC2CCCCC2)c(=O)c2c(OC)cccc21 | > 10000 | > 10000 |  |  | 
3 | CCCCCn1c(C)c(-c2cccc(C)c2)c(=O)n(CC(=O)NC(C)(C)C)c1=O | > 10000 | > 10000 |  |  | 
4 | CCCCCCn1c(C)cc(=O)n(CC(=O)NC(C)(C)C)c1=O | > 10000 | 767 | >13 | 65 | 
5 | CCCCCn1c(=O)n(CC(=O)NC2CC2)c(=O)c2ccccc21 | > 10000 | 743 | >13 | 58 | 
6 | CCCCCn1c(=O)n(CC(=O)NCCCC)c(=O)c2c(OC)cccc21 | > 10000 | > 10000 |  |  | 
7 | C=CCCn1c(=O)n(CC(=O)NC(C)(C)C)c(=O)c2cccc(C)c21 | > 10000 | 99.6 | >100 | 90 | 
8 | CCCCCn1c(=O)n(CC(=O)NCCCC)c(=O)c2c(C)cccc21 | > 10000 | 468 | >21 | 83 | 
9 | CCCCCn1c(C)cc(=O)n(CC(=O)NC(C)(C)C)c1=O | > 10000 | 722 | >13 | 72 | 
10 | CCCCCn1c(=O)n(CC(=O)NC2CCCCC2)c(=O)c2c(Cl)cccc21 | > 10000 | > 10000 |  |  | 
11 | CCCn1c(=O)n(CC(=O)NC(C)(C)C)c(=O)c2cccc(C)c21 | > 10000 | 407 | >25 | 121 | 
12 | CCCCCn1c(=O)n(CC(=O)NCC(C)C)c(=O)c2ccccc21 | > 10000 | 370 | >27 | 81 | 
13 | Cc1cccc2c(=O)n(CC(=O)NC(C)(C)C)c(=O)n(CC3CC3)c12 | > 10000 | 309 | >32 | 110 | 
14 | CCCCCn1c(=O)n(CC(=O)NCCCC)c(=O)c2c(Cl)cccc21 | > 10000 | 147 | >68 | 30 | 
15 | CCCCCn1c(=O)n(CC(=O)NC(C)C)c(=O)c2ccccc21 | > 10000 | 214 | >47 | 65 | 
16 | CCCCCn1c(=O)n(CC(=O)NCCCC)c(=O)c2ccccc21 | > 10000 | 78.6 | >127 | 78 | 
17 | CCCCCn1c(C)c(Cl)c(=O)n(CC(=O)NC(C)(C)C)c1=O | > 10000 | 227 | >44 | 65 | 
18 | O=C(NCC1CCOCC1)c1cnc(Nc2ccc(Cl)cc2Cl)nc1C(F)(F)F [GW842166X] | > 10000 | 343 | >29 | 97 | 4.27
19 | CCCCCn1c(C)c(-c2ccccc2)c(=O)n(CC(=O)NC(C)(C)C)c1=O | > 10000 | > 10000 |  |  | 
20 | CCCCCn1c(C)cc(=O)n(CC(=O)NCCCC)c1=O | > 10000 | > 10000 |  |  | 

Row | Compound | EC50 [1] [nM] | EC50 [2] [nM] | Ratio EC50 [3] | Emax [4] [%] | logP at 20 h [5]
21 | CCCCCn1c(C)cc(=O)n(CC(=O)NC2CCCCC2)c1=O | > 10000 | > 10000 |  |  | 
22 | CCCCn1c(=O)n(CC(=O)NC(C)(C)C)c(=O)c2c(C)cccc21 | > 10000 | 23.5 | >425 | 98 | 
23 | CCCCn1c(=O)n(CC(=O)NC(C)(C)C)c(=O)c2cccc(C)c21 | > 10000 | 38.2 | >262 | 102 | 
24 | CCCCCn1c(=O)n(CC(=O)NC2CCCCC2)c(=O)c2ccccc21 | > 10000 | > 10000 |  |  | 
25 | CCCCCn1c(=O)n(CC(=O)NC(C)(C)C)c(=O)c2cccc(OC)c21 | > 10000 | > 10000 |  |  | 
26 | CCCCn1c(=O)n(CC(=O)NC(C)(C)C)c(=O)c2ccccc21 | > 10000 | 112 | >89 | 101 | 
27 | CCCCCn1c(=O)n(CC(=O)NC(C)(C)C)c(=O)c2c(OC)cccc21 | > 10000 | 1250 | >8 | 88 | 
28 | CCCCCn1c(=O)n(CC(=O)NC2CCCCC2)c(=O)c2c(C)cccc21 | > 10000 | 395 | >25 | 56 | 
29 | CCCn1c(=O)n(CC(=O)NC(C)(C)C)c(=O)c2c(C)cccc21 | > 10000 | 113 | >88 | 113 | 
30 | CCCCCn1c(=O)n(CC(=O)NC(C)(C)C)c(=O)c2cccc(Cl)c21 | > 10000 | 52.7 | >190 | 118 | 
31 | CCCCCn1c(=O)n(CC(=O)NC(C)(C)C)c(=O)c2ccccc21 | > 10000 | 86.5 | >116 | 80 | 
32 | CCCCn1c(C)cc(=O)n(CC(=O)NC(C)(C)C)c1=O | > 10000 | > 10000 |  |  | 
33 | CCCCCn1c(C)c(I)c(=O)n(CC(=O)NC(C)(C)C)c1=O | > 10000 | 178 | >56 | 78 | 
34 | CCCn1c(=O)n(CC(=O)NC(C)(C)C)c(=O)c2ccccc21 | > 10000 | 1420 | >7 | 75 | 
35 | Cc1cccc2c1c(=O)n(CC(=O)NC(C)(C)C)c(=O)n2CC1CC1 | > 10000 | 68.3 | >146 | 106 | 
36 | CCCCCn1c(=O)n(CC(=O)NC(C)(C)C)c(=O)c2c(C)cccc21 | > 10000 | 14 | >715 | 77 | 2.56
37 | CCCCN1C(=O)/C(=C/NC2CCCCC2)C(=O)c2cccc(C)c21 |  |  |  |  | 4.35
38 | CCCCCn1c(=O)n(CC(=O)NC(C)(C)C)c(=O)c2cccc(C)c21 | > 10000 | 27.7 | >361 | 99 | 
39 | CCCCCn1c(C)c(C2CC2)c(=O)n(CC(=O)NC(C)(C)C)c1=O | > 10000 | 270 | >37 | 71 | 
40 | CCCCCn1c(C)c(Br)c(=O)n(CC(=O)NC(C)(C)C)c1=O | > 10000 | 48.7 | >205 | 74 | 2.24
